Test results reported in patent US20170321214A1, “DEAD GUIDES FOR CRISPR TRANSCRIPTION FACTORS” (The Broad Institute Inc., priority 2014, published 2017).

Tests used:
[1] = system: Factor VII; settings: LNP siRNA systems containing these lipids; cited from earlier work
[2] = system: HBG1/2 promoter; assay: Off-target transcriptional activation using RNAseq; type: cell-based
Experimental: FIG. 7A-7C: The plots of FIG. 7 illustrate embodiments in which dRNAs can specifically upregulate gene expression, and have a specificity profile similar to 20 bp sgRNA activators. Sequences targeted to the HBG1/2 promoter were tested for off-target transcriptional activation using RNAseq. 20 nt sgRNAs with MS2 binding loops were co-transfected with dCas9 and the MPH activation complex. […] (In all cases, N=3 replicates/group).

[3] = system: dystrophin; settings: across 48 weeks, average; cited from earlier work
[4] = 20 nt sgRNA with MS2 loops + dCas9 + MPH

Question: Which “gene silencing potency series” value [1] does the source give for “1,2-dilinoleyloxy-keto-N,N-dimethyl-3-aminopropane [DLinKDMA]” here?
Answer: The value was “DLinKC2-DMA>DLinKDMA>DLinDMA>>DLinDAP”.

Question: With `CCCCC/C=C\C/C=C\CCCCCCCC(=O)OCC(CN(C)C)OC(=O)CCCCCCC/C=C\C/C=C\CCCCC` (stereo not drawn) [DLinDAP, 1,2-dilineoyl-3-dimethylammonium-propane] as the compound, how does the “gene silencing potency series” value [1] read?
Answer: Its value is “DLinKC2-DMA>DLinKDMA>DLinDMA>>DLinDAP”.

Question: For `CCCCC/C=C\C/C=C\CCCCCCCCOCC(CN(C)C)OCCCCCCCC/C=C\C/C=C\CCCCC` (stereo not drawn) [DLinDMA, 1,2-dilinoleyloxy-3-N,N-dirnethylamiopropane], which “gene silencing potency series” value [1] is on record?
Answer: The value was “DLinKC2-DMA>DLinKDMA>DLinDMA>>DLinDAP”.

Question: With `CCCCC/C=C\C/C=C\CCCCCCCCC1(CCCCCCCC/C=C\C/C=C\CCCCC)OCC(CCN(C)C)O1` (stereo not drawn) [DLinKC2-DMA, 1,2-dilinoleyl-4-(2-dimethylaminoethyl)-[1,3]-dioxolane] as the compound, how does the “gene silencing potency series” value [1] read?
Answer: Its value is “DLinKC2-DMA>DLinKDMA>DLinDMA>>DLinDAP”.

Question: With “SEQ ID NO 90: 20 nt sgRNA with MS2 binding loops targeted to the HBG1/2 promoter, second guide (guide CCAGTGAGGCCAGGGGCCGG; listed as DNA, chemistry not given here)” as the compound, how does the “significantly upregulated genes apart from HBG1/2” value [2, 4] read?
Answer: The value was 55.

Question: With “SEQ ID NO 97: dRNA targeted to the HBG1/2 promoter, second guide (guide GAGGCCAGGGGCCGG; listed as DNA, chemistry not given here)” as the compound, how does the “significantly upregulated genes apart from HBG1/2” value ([2]; dRNA + active Cas9 + MPH) read?
Answer: The value was 31.

Question: Which “significantly upregulated genes apart from HBG1/2” value [2, 4] does the source give for “SEQ ID NO 120: 20 nt sgRNA with MS2 binding loops targeted to the HBG1/2 promoter, first guide (guide GGCTAGGGATGAAGAATAAA; listed as DNA, chemistry not given here)” here?
Answer: Its value is “Zero”.

Question: With “SEQ ID NO 125: dRNA targeted to the HBG1/2 promoter, first guide (guide GGGATGAAGAATAAA; listed as DNA, chemistry not given here)” as the compound, how does the “significantly upregulated genes apart from HBG1/2” value ([2]; dRNA + active Cas9 + MPH) read?
Answer: Its value is “Zero”.

Question: For eteplirsen, which “dystrophin positive fibers compared to baseline” value [3] is on record?
Answer: The value was 47%.
